Measurements: US20230069886A1, “AROMATIC SULPHONAMIDES DERIVATIVES THAT INHIBITS PDI A3, THEIR SYNTHESIS AND USE” (Uniwersytet Jagiellonski, priority 2020, published 2023)

Key:
[1] = system: MCF-7; assay: MTT antiproliferative assay, 48 h, MCF-7; type: cell-based, human; settings: 48-hour exposition, read-out: Cytotoxicity, IC50, μM MCF-7
Description: (§1) Anticancer activity of compounds of invention, PDI A3-inhibitors has been tested in vitro in classical antiproliferative assay in various cancer cells lines. Monolayer tumor cell lines MDA-MB-231 (human mammary breast adenocarcinoma), MCF-7 (human breast adenocarcinoma, estrogen-positive), HT-1080 (human fibrosarcoma) and Caco-2 (human colon adenocarcinoma) were cultured in standard medium DMEM (Dulbecco's modified Eagle's medium) (“Sigma”) supplemented with 10% foetal bovine serum (“Sigma”). About 2000-4000 cells per well (depending on line nature) were placed in 96-well plates and after 24 h compounds were added to the wells. Untreated cells were used as a control. The plates were incubated for 48 h, 37° C., 5% CO2. The number of surviving cells was determined using 3-(4,5-dimethylthiazol-2-yl)-2,5-diphenyltetrazolinium bromide (MTT). MTT-test: after incubating culture medium was removed and 200 μL fresh medium with 20 μL MTT (2 mg/mL in HBSS) was added in each well of the plate. After incubation (3 hr., 37° C., 5% CO2), the medium with MTT was removed and 200 μL DMSO were added at once to each sample. The samples were tested at 540 nm on Thermo Scientific Multiskan EX microplate photometer. The half-maximal inhibitory concentration (IC50) of each compound was calculated using Graph Pad Prism® 3.0.

[2] = system: CaCo-2; assay: MTT antiproliferative assay, 48 h, Caco-2; type: cell-based, human; settings: 48-hour exposition, read-out: Cytotoxicity, IC50, μM CaCo-2
Description: as §1

[3] = system: HT-1080; assay: MTT antiproliferative assay, 48 h, HT-1080; type: cell-based, human; settings: 48-hour exposition, read-out: Cytotoxicity, IC50, μM HT-1080
Description: as §1

[4] = system: MDA-MB-231; assay: MTT antiproliferative assay, 48 h, MDA-MB-231; type: cell-based, human; settings: 48-hour exposition, read-out: Cytotoxicity, IC50, μM MDA-MB-231
Description: as §1

[5] = biological target: T1, PDI A3 (Homo sapiens, UniProt P30101); assay: PDI A3 inhibition, insulin turbidimetric assay; type: biochemical; settings: 10 ug/ml PDI A3, incubated 60 min at 37° C., turbidity at 650 nm; read-out: Inhibition of PDI A3 (EC 50)
T1 construct: purchased Mybiosource; host or cells: E. coli
T1 sequence (P30101 25-505): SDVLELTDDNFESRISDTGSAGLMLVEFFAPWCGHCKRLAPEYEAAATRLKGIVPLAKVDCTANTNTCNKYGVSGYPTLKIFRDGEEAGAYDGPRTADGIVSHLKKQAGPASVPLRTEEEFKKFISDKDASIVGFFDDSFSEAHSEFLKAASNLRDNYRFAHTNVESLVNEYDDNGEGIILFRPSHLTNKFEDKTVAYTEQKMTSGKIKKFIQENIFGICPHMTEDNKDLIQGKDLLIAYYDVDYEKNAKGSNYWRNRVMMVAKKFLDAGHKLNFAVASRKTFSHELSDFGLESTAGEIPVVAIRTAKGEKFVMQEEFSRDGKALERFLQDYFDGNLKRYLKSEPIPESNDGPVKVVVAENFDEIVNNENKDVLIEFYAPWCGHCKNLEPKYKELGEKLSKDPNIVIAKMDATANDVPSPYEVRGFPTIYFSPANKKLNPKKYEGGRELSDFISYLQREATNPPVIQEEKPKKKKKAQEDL
Description: The inhibitory effects compounds of invention on activity of PDIA3 was assess based on the insulin turbidimetric assay. Enzymatic activity of PDIA3 was confirmed by measuring the turbidity increase at 650 nm due to insulin reduction. The assay mixture was prepared by addition 10 ug/ml PDI A3 (E. coli recombinant protein; Mybiosource), […] phosphate buffer (pH7.6), 1 mM EDTA, 0.087 mM DTT and with or without tested compound and was incubated for 60 min, at 37° C. Reaction was started by addition of insulin and DTT. Final concentration of insulin and DTT in assay mixture were 0.15 mMv and 0.174 mMv, respectively. Turbidity was detected at 650 nm against reference samples without PDJs. The measurements were performed at 650 nm using 120-s recordings.

EC50 [5]: 190 µM
Substance: Methyl 1-(4-propylphenyl)sulfonylaziridine-2-carboxylate [Compound C-3304]
IC50 [1]: 49 ± 1 µM
IC50 [2]: 10 ± 1 µM
IC50 [3]: 17 ± 3 µM
IC50 [4]: 13 ± 1 µM
